Columns and labels:
[1] = Laboratory assessments (lipid profile) pre- and post-treatment in obese patients; assay type: in vivo, human; conditions: RFX vs. PBO, p<0.04; 550 mg twice daily for 20 days
Description: (§1) Patients were followed for up to six months. The primary endpoint was weight loss at the end of the study. Laboratory assessments including a basic metabolic panel, liver enzymes, lipid profile, and HbA1c (glucose testing) were obtained pre- and post-treatment.
(§2) Baseline demographic characteristics included median age of 45 (range 18-62) years, gender (73% female) average starting weight of 238.5±77.1 lbs and BMI of 38.8±9.7. Common co-morbidities included GERD (37%), hypertension (32%), diabetes (19%), and lipid disorders (14%). […] Weight loss in the rifaximin group was statistically significant (P<0.03) when compared to baseline weight. Diabetics tended to lose more weight (−6.1 lbs), and patients with underlying lipid disorders lost the least (−0.7 lbs).

[2] = system: species of Staphylococcus, Streptococcus, Enterococcus, and Enterobacteriaceae; conditions: in vitro data; cited from earlier work
[3] = Pilot randomized placebo-controlled study of weight loss in obese patients (BMI>30); assay type: in vivo, human
Description: as §1, §2

## COC1/C=C/OC2(C)Oc3c(C)c(O)c4c(O)c(c5c(nc6cc(C)ccn65)c4c3C2=O)NC(=O)/C(C)=C\C=C\C(C)C(O)C(C)C(O)C(C)C(OC(C)=O)C1C (stereo not shown) [RFX]
[1]
  Triglycerides difference pre- to post-treatment: +15.9
[2]
  antibacterial activity in vitro: active
[3]; first study visit following treatment, 550 mg twice daily for 20 days, patients with BMI>30
  mean weight lost: 1.1 lbs
[3]; mean follow-up of 4.9 months, 550 mg twice daily for 20 days, P<0.03 compared to baseline weight
  mean weight lost at the end of the study: 4.5 lbs
[3]; obese patients (BMI>30), pilot study
  weight loss as compared to placebo patients: greater weight loss
[3]; subgroup: diabetics, 550 mg twice daily for 20 days
  weight change in diabetics: −6.1 lbs
[3]; subgroup: underlying lipid disorders, 550 mg twice daily for 20 days
  weight change in patients with underlying lipid disorders: −0.7 lbs

Reference: patent publication US20150164866A1, “METHODS OF ADMINISTERING RIFAXIMIN FOR WEIGHT LOSS AND TREATMENT OF OBESITY” (Salix Pharmaceuticals, Ltd, priority 2012, published 2015)
